Measured values: publication PMC8324038 (ACS infectious diseases, 2021)
Values after ≈ are worked out from the molar mass of the structure shown.

What was measured:
[1] = system: E. coli DH10B pBC SK(+) empty; test: MIC susceptibility testing, empty vector control; conditions: Escherichia coli
[2] = target: T1, purified PenA1 β-lactamase (Burkholderia multivorans, UniProt A0A0H3KN52); test: Acylation rate k2/K; format: biochemical; conditions: acylation rate (kinact/KI or k2/K), nitrocefin 100 μM reporter
T1 sequence (A0A0H3KN52 28-302): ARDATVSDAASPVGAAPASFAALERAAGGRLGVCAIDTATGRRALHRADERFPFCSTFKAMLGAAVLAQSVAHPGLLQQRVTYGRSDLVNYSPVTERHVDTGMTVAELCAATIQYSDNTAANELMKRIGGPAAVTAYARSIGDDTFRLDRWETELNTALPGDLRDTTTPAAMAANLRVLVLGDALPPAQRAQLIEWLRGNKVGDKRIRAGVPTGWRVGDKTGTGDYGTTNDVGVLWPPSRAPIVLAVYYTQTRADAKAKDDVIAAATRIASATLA

[3] = target: T1, purified PenA1 β-lactamase; test: Steady-state inhibition kinetics, Ki-app, purified enzyme; format: biochemical; conditions: read-out: Km nitrocefin, used for correction of Ki-app

SMILES: CCN1CCN(C(=O)N[C@@H](C(=O)N[C@@H]2C(=O)N3[C@@H]2SC(C)(C)[C@@H]3C(=O)O)c2ccccc2)C(=O)C1=O [Piperacillin]
- MIC [1]: 2 µg/mL (≈ 3.86 µM)

SMILES: O=C(O)[C@H]1/C(=C/CO)O[C@@H]2CC(=O)N21 [clavulanic acid]
- k2/K [2]: 340 to 2e+06 M⁻¹ s⁻¹

SMILES: O=C(Cc1cccs1)N[C@@H]1C(=O)N2C(C(=O)O)=C(/C=C/c3ccc([N+](=O)[O-])cc3[N+](=O)[O-])CS[C@H]12 [nitrocefin]
- Km [3]: 147 µM

SMILES: Cn1cc[n+](C[C@@]2(C)[C@H](C(=O)[O-])N3C(=O)C[C@H]3S2(=O)=O)n1 [enmetazobactam]
- k2/K [2]: 6.3 ± 2.0 × 10^5 M^−1 s^−1
